Laboratory results as given in ChEMBL document CHEMBL5465560, “Selectivity Literature for EUbOPEN Chemogenomic Library” (2024).

What was measured:
[1] = target: Tyrosine-protein kinase Fes/Fps (Homo sapiens) (UniProt P07332); assay: Selectivity interaction (Kinase panel (DSF assay)) EUB0001558a FES
[2] = target: T1, Cytoplasmic tyrosine-protein kinase BMX (Homo sapiens) (UniProt P51813); assay: Selectivity interaction (Upstate Kinase Profiler service (Millipore)) EUB0000056c BMX; conditions: at 1 µM
T1 sequence (whole entry): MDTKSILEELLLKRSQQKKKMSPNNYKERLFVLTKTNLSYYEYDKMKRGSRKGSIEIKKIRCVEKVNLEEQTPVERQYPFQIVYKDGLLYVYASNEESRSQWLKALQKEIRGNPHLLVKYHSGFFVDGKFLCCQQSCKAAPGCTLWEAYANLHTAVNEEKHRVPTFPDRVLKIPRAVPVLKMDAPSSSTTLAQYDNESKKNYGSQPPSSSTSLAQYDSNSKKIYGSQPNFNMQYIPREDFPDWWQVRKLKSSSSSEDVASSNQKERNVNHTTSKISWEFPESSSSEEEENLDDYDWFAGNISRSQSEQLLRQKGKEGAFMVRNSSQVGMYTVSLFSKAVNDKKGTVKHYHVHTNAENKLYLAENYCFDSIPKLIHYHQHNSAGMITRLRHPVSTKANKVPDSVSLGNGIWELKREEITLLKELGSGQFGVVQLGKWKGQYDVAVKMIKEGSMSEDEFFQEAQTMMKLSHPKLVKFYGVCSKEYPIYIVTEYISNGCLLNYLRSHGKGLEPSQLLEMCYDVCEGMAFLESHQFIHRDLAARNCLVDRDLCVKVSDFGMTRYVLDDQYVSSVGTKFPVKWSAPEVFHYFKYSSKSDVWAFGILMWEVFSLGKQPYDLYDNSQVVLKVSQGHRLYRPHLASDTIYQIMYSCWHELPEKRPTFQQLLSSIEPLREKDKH

[3] = target: High affinity nerve growth factor receptor (Homo sapiens, UniProt P04629); assay: Selectivity interaction (KinomeScan (DiscoverX)) EUB0001079a NTRK1; conditions: at 1 µM
[4] = target: T2, Phosphorylase b kinase gamma catalytic chain, liver/testis isoform (Homo sapiens) (UniProt P15735); assay: Selectivity interaction (Kinase panel (Z-LYTE Assay)) EUB0001632a PHKG2; conditions: at 10 µM
T2 sequence (whole entry): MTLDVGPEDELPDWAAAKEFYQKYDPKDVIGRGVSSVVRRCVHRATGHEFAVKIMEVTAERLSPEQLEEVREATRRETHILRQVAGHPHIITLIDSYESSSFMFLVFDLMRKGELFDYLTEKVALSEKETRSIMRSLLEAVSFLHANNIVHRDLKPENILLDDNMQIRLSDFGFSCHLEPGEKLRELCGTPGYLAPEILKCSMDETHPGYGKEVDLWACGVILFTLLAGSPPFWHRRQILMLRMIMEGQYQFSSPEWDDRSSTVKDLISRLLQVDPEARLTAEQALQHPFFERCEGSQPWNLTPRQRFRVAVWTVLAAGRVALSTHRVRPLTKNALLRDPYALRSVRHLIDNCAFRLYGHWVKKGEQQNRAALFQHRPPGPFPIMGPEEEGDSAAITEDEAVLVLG

[5] = target: Nucleosome-remodeling factor subunit BPTF (Homo sapiens, UniProt Q12830); assay: Selectivity interaction (Bromodomain panel (DSF asssay)) EUB0000270b BPTF
[6] = target: T3, Aurora kinase A (Homo sapiens) (UniProt O14965); assay: Selectivity interaction (ActivX KiNativ screen (kinase selectivity in THP-1 cell lysates)) EUB0000639a STK6; format: subcellular; conditions: lysate, at 1 µM
T3 sequence (whole entry): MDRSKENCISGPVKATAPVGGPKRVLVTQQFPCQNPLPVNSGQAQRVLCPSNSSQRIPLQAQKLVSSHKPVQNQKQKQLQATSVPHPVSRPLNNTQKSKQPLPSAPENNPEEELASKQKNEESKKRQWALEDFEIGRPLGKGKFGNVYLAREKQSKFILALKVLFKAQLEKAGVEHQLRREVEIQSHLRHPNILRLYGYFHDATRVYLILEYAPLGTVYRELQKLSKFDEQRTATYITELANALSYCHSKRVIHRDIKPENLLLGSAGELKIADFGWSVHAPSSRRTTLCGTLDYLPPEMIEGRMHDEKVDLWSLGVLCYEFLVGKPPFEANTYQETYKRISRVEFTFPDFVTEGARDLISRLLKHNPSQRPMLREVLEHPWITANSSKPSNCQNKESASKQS

[7] = tested on: Mast/stem cell growth factor receptor Kit (Homo sapiens), P10721 [D816H]; assay: (§1) Selectivity interaction (KinomeScan (DiscoverX)) EUB0000595a KIT; conditions: at 10 µM
[8] = tested on: Mast/stem cell growth factor receptor Kit (Homo sapiens), P10721 [D816V]; assay: as §1; conditions: at 10 µM
[9] = tested on: Mast/stem cell growth factor receptor Kit (Homo sapiens), P10721 [L576P]; assay: as §1; conditions: at 10 µM
[10] = tested on: Mast/stem cell growth factor receptor Kit (Homo sapiens), P10721 [V559D,T670I]; assay: as §1; conditions: at 10 µM
[11] = tested on: Mast/stem cell growth factor receptor Kit (Homo sapiens), P10721 [V559D,V654A]; assay: as §1; conditions: at 10 µM
[12] = tested on: Mast/stem cell growth factor receptor Kit (Homo sapiens), P10721 [V559D]; assay: as §1; conditions: at 10 µM
[13] = target: Vascular endothelial growth factor receptor 1 (Homo sapiens) (UniProt P17948); assay: Selectivity interaction (KinomeScan (DiscoverX)) EUB0000045b FLT1
[14] = target: Glycogen synthase kinase-3 alpha (Homo sapiens, UniProt P49840); assay: Selectivity interaction (KinomeScan (DiscoverX)) EUB0000045b GSK3A
[15] = target: Serine/threonine-protein kinase 33 (Homo sapiens) (UniProt Q9BYT3); assay: Selectivity interaction (KinomeScan (DiscoverX)) EUB0000618a STK33; conditions: at 10 µM
[16] = target: Homeodomain-interacting protein kinase 3 (Homo sapiens, UniProt Q9H422); assay: Selectivity interaction (Ambit KINOMEscan and KiNATiv profiling in Jurkat cells) EUB0000090b HIPK3; format: cell-based; conditions: at 1 µM

Chain of Glycogen synthase kinase-3 alpha (P49840 2-483 limits assumed): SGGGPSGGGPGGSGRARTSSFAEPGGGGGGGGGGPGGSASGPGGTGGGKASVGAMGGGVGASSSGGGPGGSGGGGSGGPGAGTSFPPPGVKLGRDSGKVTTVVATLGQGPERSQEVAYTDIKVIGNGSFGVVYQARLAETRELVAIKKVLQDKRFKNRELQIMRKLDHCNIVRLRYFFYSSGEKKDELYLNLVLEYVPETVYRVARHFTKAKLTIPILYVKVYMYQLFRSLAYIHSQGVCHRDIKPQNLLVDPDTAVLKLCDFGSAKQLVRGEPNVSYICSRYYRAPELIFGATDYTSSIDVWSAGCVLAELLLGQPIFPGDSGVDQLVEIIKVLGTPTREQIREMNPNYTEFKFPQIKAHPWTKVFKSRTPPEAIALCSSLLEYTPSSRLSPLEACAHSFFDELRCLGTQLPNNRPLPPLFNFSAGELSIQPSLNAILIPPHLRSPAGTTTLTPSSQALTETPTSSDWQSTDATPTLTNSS
Chain of Vascular endothelial growth factor receptor 1 (Homo sapiens) (P17948 whole entry): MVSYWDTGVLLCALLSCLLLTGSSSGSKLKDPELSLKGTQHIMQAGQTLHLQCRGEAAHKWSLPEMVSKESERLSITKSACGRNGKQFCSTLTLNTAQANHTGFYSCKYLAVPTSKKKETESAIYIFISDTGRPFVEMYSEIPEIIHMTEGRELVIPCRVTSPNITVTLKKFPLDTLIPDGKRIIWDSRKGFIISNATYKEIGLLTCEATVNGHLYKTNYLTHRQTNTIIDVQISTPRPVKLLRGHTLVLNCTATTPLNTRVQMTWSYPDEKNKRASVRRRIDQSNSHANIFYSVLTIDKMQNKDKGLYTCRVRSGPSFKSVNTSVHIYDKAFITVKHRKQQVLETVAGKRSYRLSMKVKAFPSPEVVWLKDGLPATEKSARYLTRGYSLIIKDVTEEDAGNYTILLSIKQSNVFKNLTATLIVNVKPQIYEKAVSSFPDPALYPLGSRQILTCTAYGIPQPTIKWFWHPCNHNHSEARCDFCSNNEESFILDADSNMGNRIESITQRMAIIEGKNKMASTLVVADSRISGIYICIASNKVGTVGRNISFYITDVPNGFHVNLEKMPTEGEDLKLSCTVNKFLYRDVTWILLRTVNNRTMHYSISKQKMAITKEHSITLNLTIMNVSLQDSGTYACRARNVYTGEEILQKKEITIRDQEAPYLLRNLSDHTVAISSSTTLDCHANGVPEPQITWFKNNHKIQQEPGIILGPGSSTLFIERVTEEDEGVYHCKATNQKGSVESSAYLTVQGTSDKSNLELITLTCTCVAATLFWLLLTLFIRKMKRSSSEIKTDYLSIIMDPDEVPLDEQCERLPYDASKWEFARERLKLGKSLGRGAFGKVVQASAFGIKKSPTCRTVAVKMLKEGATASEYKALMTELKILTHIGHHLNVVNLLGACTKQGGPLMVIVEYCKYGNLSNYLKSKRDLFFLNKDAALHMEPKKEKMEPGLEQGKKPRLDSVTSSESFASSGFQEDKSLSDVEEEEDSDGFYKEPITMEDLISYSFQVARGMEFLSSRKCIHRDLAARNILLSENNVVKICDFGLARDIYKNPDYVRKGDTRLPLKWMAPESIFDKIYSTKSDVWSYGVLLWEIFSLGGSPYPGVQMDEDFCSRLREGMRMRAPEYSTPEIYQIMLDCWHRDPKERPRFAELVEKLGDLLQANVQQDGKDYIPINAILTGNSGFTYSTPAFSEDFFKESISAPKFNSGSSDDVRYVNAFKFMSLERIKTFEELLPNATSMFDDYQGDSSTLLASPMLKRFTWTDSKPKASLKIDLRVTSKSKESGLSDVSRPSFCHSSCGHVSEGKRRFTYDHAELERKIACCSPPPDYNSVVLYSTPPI
Chain of Serine/threonine-protein kinase 33 (Homo sapiens) (Q9BYT3 whole entry, looked up): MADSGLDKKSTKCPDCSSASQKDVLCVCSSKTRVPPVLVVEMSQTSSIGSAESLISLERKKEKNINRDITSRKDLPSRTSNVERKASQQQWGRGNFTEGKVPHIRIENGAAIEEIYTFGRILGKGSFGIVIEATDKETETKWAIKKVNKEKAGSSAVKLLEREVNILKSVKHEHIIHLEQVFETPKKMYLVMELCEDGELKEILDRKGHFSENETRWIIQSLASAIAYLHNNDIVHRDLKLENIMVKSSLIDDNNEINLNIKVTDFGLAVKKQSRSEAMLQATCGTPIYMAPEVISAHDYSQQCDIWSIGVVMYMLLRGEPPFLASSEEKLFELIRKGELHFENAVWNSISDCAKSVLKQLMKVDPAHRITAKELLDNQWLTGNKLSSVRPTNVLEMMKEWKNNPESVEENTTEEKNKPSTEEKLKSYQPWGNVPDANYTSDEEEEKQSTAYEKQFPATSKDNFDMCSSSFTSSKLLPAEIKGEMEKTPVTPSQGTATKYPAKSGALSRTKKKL
Chain of Mast/stem cell growth factor receptor Kit (Homo sapiens), P10721 [V559D] (P10721 whole entry V559D): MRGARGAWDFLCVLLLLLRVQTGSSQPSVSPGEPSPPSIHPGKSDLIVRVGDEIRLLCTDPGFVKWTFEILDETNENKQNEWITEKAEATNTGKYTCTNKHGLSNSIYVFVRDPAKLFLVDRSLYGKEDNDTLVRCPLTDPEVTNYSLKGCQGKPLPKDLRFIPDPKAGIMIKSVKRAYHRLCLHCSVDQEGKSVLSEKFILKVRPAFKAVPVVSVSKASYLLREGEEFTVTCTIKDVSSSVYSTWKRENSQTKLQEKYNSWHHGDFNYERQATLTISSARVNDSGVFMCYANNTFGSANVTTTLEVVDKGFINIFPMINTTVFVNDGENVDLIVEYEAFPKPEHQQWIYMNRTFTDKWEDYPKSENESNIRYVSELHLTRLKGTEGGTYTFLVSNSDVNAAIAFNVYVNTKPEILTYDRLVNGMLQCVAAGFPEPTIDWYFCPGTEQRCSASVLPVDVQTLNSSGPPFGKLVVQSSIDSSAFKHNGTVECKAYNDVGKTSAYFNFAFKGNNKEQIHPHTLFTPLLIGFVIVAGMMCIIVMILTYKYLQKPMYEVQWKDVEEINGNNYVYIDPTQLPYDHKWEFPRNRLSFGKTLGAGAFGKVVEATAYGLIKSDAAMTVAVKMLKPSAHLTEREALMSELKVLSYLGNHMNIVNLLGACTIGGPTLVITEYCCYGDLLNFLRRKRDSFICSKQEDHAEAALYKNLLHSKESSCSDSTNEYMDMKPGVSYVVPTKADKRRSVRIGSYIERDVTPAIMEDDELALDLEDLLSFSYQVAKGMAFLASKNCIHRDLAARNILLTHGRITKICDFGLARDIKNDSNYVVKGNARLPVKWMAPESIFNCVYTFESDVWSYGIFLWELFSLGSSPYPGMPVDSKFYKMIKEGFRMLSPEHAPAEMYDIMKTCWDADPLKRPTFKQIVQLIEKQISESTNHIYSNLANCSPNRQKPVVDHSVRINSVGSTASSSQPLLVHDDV
Chain of Mast/stem cell growth factor receptor Kit (Homo sapiens), P10721 [L576P] (P10721 whole entry L576P): as the sequence (P10721 whole entry V559D) above, with D559V, L576P counted along it
Chain of High affinity nerve growth factor receptor (P04629 33-796 limits assumed): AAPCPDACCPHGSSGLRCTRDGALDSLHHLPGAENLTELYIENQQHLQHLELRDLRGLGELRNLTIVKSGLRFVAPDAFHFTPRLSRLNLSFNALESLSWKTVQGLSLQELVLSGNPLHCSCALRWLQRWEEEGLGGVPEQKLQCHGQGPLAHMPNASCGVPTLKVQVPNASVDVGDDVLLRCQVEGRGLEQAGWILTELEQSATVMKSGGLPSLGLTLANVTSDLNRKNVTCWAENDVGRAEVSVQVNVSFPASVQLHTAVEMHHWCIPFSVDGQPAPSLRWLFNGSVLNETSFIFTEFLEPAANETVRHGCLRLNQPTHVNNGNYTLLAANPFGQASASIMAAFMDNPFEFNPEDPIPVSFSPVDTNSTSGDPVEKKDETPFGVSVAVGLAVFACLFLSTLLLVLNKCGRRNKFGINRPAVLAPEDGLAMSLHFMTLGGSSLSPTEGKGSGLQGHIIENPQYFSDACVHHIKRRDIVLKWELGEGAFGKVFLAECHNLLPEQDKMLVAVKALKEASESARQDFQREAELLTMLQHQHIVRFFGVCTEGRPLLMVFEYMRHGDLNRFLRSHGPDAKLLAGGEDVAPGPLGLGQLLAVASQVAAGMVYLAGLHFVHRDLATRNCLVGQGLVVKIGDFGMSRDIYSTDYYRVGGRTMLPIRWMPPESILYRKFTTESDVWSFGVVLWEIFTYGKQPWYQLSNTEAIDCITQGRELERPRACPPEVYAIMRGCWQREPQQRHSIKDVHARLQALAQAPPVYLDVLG

Compound: CC(C)(O)[C@H](F)CN1Cc2cc(NC(=O)c3cnn4cccnc34)c(N3CCOCC3)cc2C1=O
- dTM [1]: 0.3 K

Compound: Cc1ccc(-c2ccc3c(ccc4sc5c(c43)NC[C@@H](C)NC5=O)n2)cn1
- % of inhibition [2]: 4%

Compound: Nc1cnc(N2CCc3cc(S(=O)(=O)Nc4c(F)cc(Cl)cc4F)cc(N4CCCC4=O)c32)nc1 [TP-020n]
- % of control [3]: 100%

Compound: Cn1cc(-n2cnc3c(NCc4nc5cc(Cl)c(Cl)cc5[nH]4)nc(N4CCOCC4)nc32)cn1
- % of control [4]: 4.25%

Compound: Cc1cc(CN)cc(C)c1-c1ncn(C)c1-c1cncn1C
- dTM [5]: -2.3 K

Compound: CC[C@@H]1[C@H](F)C(=O)N[C@@H]1COc1nccc2cc(C(N)=O)c(OC)cc12 [ZIMLOVISERTIB]
- % of inhibition [6]: 20%

Compound: COCC(=O)NC/C=C/c1ccc2ncnc(Nc3ccc(Oc4ccc(C)nc4)c(C)c3)c2c1 [CP-724714]
- % of control [7]: 100%
- % of control [8]: 89%
- % of control [9]: 54%
- % of control [10]: 100%
- % of control [11]: 88%
- % of control [12]: 17%

Compound: C=CC(=O)Nc1cc(-n2c(=O)ccc3cnc4ccc(-c5ccc(NS(C)(=O)=O)cc5)cc4c32)ccc1C
- % of control ([13]; at 1 µM): 100%
- % of control ([13]; at 10 µM): 100%
- % of control ([14]; at 1 µM): 100%
- % of control ([14]; at 10 µM): 100%

Compound: O[C@H]1CC[C@H](Nc2ncc3nc(Nc4c(F)cc(F)cc4F)n([C@H]4CCOC4)c3n2)CC1
- % of control [15]: 100%

Compound: CN(C)C/C=C/C(=O)Nc1ccc(C(=O)N2CCCC(Nc3ncc(Cl)c(-c4c[nH]c5ccccc45)n3)C2)cc1 (stereo not drawn)
- % of control [16]: 85%
